The record followed here is patent US20090018166A1, “New Pyridine Analogues X 161” (ASTRAZENECA AB, priority 2007, published 2009).

In this assay the target is T1, P2Y12 receptor (Homo sapiens, UniProt Q9H244).
T1 construct: expressed in transfected cells; host or cells: CHO cells (membranes)
T1 sequence (Q9H244 whole entry): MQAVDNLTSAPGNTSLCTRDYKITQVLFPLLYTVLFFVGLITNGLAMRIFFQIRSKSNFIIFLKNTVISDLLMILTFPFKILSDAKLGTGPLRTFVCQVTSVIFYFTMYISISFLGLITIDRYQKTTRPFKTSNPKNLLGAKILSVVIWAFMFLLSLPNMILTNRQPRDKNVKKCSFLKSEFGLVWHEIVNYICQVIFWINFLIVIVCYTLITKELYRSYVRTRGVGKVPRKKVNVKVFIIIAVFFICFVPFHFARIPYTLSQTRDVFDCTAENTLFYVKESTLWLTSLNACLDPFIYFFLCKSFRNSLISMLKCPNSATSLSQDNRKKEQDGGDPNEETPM
In words: Functional inhibition of 2-Me-S-ADP induced P2Y12 signalling (35S-GTPγS binding, membranes from P2Y12 transfected CHO-cells). It counts as biochemical. The note with it: 35S-GTPγS, EC80 of 2-methyl-thio-adenosine diphosphate, P2Y12 CHO membranes; value given in each example; read-out: GTPγS(IC50 μM). A digest of the protocol: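 Membranes (5 μg) from P2Y12-transfected CHO cells in pH 7.4 HEPES buffer with 10 μM GDP and saponin were stimulated with an EC80 of 2-methyl-thio-ADP plus compound and ^35S-GTPγS for 45 min at 30° C. Filter-retained ^35S-GTPγS was counted, normalised between agonist and no-agonist activity, and IC50 taken from a four-parameter fit.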
For `CCc1cnc(-c2cc(C#N)c(N3CCC(C(=O)NS(=O)(=O)N(C)c4ccc(F)cc4)CC3)nc2CN2CCCC2=O)o1` [Example 62, 1-{3-cyano-5-(5-ethyl-1,3-oxazol-2-yl)-6-[(2-oxopyrrolidin-1-yl)methyl]pyridin-2-yl}-N-{[(4-fluorophenyl)(methyl)amino]sulfonyl}piperidine-4-carboxamide], the IC50 is 0.03 µM.
Consider `CCc1cnc(-c2cc(C#N)c(N3CCC(C(=O)NS(=O)(=O)Cc4ccccc4)CC3)nc2CN2CCCC2=O)o1` [Example 63, N-(benzylsulfonyl)-1-{3-cyano-5-(5-ethyl-1,3-oxazol-2-yl)-6-[(2-oxopyrrolidin-1-yl)methyl]pyridin-2-yl}piperidine-4-carboxamide], for which the IC50 came to 0.021 µM.
With `CCc1cnc(-c2cc(Cl)c(N3CCC(C(=O)NS(=O)(=O)N(C)c4ccc(F)cc4)CC3)nc2CN2CCCC2=O)o1` [Example 64, 1-{3-chloro-5-(5-ethyl-1,3-oxazol-2-yl)-6-[(2-oxopyrrolidin-1-yl)methyl]pyridin-2-yl}-N-{[(4-fluorophenyl)(methyl)amino]sulfonyl}piperidine-4-carboxamide] the figure was 0.45 µM.
As for `CCc1cnc(-c2cc(Cl)c(N3CCC(C(=O)NS(=O)(=O)Cc4ccccc4)CC3)nc2CN2CCCC2=O)o1` [Example 65, N-(benzylsulfonyl)-1-{3-chloro-5-(5-ethyl-1,3-oxazol-2-yl)-6-[(2-oxopyrrolidin-1-yl)methyl]pyridin-2-yl}piperidine-4-carboxamide], the IC50 was found to be 0.17 µM.
Take `CCCC(=O)c1cc(Cl)c(N2CCC(C(=O)NS(=O)(=O)Cc3ccccc3)CC2)nc1CN1CCCCC1=O` [Example 66, N-(benzylsulfonyl)-1-{5-butyryl-3-chloro-6-[(2-oxopiperidin-1-yl)methyl]pyridin-2-yl}piperidine-4-carboxamide]: the IC50 worked out at 0.252 µM.
Take `CCCC(=O)c1cc(Cl)c(N2CCC(C(=O)NS(=O)(=O)N(C)c3ccc(F)cc3)CC2)nc1CN1CCCCC1=O` [Example 67, 1-{5-Butyryl-3-chloro-6-[(2-oxopiperidin-1-yl)methyl]pyridin-2-yl}-N-{[(4-fluorophenyl)(methyl)amino]sulfonyl}piperidine-4-carboxamide]: the IC50 turned out to be 0.445 µM.
`CCCC(=O)c1cc(Cl)c(N2CCC(C(=O)N(C)S(=O)(=O)N(C)c3ccc(F)cc3)CC2)nc1CN1CCCC1=O` [Example 69, 1-{5-Butyryl-3-chloro-6-[(2-oxopyrrolidin-1-yl)methyl]pyridin-2-yl}-N-{[(4-fluorophenyl)(methyl)amino]sulfonyl}-N-methylpiperidine-4-carboxamide]: the IC50 turned out to be 3.67 µM.
The figure for `CCCC(=O)c1cc(C#N)c(N2CCC(C(=O)N(C)S(=O)(=O)CC3CCCC3)CC2)nc1CN1CCCC1=O` [Example 70, 1-{5-Butyryl-3-cyano-6-[(2-oxopyrrolidin-1-yl)methyl]pyridin-2-yl}-N-[(cyclopentylmethyl)sulfonyl]-N-methylpiperidine-4-carboxamide] is 0.903 µM.
